Where a SMILES comes first, the peptide text is derived from it. Where no end group is shown, it is not given here.
How the values were obtained:
[1] = test system: CT26 cancer cells in which CAGE expression was induced; test: Anticancer efficacy of 3-PhPh-AQTGTGKT and anti-CTLA4, alone or combined, in syngeneic mouse model; assay type: in vivo; conditions: 3-PhPh-AQTGTGKT 10 mpk i.v. every 2 days, anti-CTLA4 5 mpk i.p. every 3 days
Procedure: (§1) CT26 cancer cells in which CAGE expression was induced were mixed with Matrigel in a ratio of 1:1, and 200 μL of the cell mixture was injected into a female BALB/c mouse at a concentration of 1×10^6 cells/mouse to produce a syngeneic mouse model. After cell inoculation was completed, when the volume of the formed tumor reached 70 to 120 mm^3, groups were randomly separated and drug administration was performed. A cancer immunotherapy drug (anti-CTLA4) was intraperitoneally administered at intervals of 3 days at a concentration of 5 mpk, and the compound of the present invention (3-PhPh-AQTGTGKT) was intravenously administered at intervals of 2 days at a concentration of 10 mpk. The size of the tumor was measured twice a week to calculate a tumor volume, and the weight of a subject was also measured. On day 15 after the start of administration, the tumor was removed, and the absolute weight was measured.

[2] = test system: T cells or macrophages; assay type: in vivo, mouse
Procedure: (§2) After administering the cancer immunotherapy drug and the compound of the present invention alone or in combination to a syngeneic mouse model produced using CT26 cells in which CAGE expression was induced, tumor tissue was isolated from each subject. The obtained tumor tissue was made into a paraffin block and then sectioned, and histological analysis was performed by performing H&E staining and microscopic observation on tissue slides. […] Fluorescent images were taken at 20× magnification using a confocal microscope, and the number of T cells and macrophages (M2- and M1-type macrophages) on the entire screen was then measured and analyzed.

[3] = test system: CXCL10; test: CXCL10 mRNA expression in tumor tissue by real-time PCR; assay type: in vivo, mouse; conditions: relative to control, 2^-ΔΔCt method; FIG. 12
Procedure: After administering the cancer immunotherapy drug and the compound of the present invention alone or in combination to a syngeneic mouse model produced using CT26 cells in which CAGE expression was induced, tumor tissue was isolated from each subject. RNA was extracted from the obtained tumor tissue, cDNA was synthesized, and then an mRNA expression level of the CXCL10 gene was measured through real-time PCR. For each mRNA, a relative expression level compared to the control was calculated through the 2^−ΔΔ^Ct method.

[4] = test system: CT26 cancer cells in which CAGE expression was induced; test: Overall survival (OS) period, Kaplan Meier analysis, syngeneic mouse model; assay type: in vivo; conditions: for 39 days, 3-PhPh-AQTGTGKT 10 mpk i.v. every 2 days, anti-CTLA4 5 mpk, anti-PD-1 10 mpk every 3 days
Procedure: Next, an overall survival (OS) period according to the single or combined administration of the compound of the present invention and the cancer immunotherapy drug was compared. CT26 cancer cells in which CAGE expression was induced were mixed with Matrigel in a ratio of 1:1, and 200 μL of the cell mixture was injected into a female BALB/c mouse at a concentration of 1×10^6 cells/mouse to produce a syngeneic mouse model. After cell inoculation was completed, when the volume of the formed tumor reached 70 to 120 mm^3, groups were randomly separated and drug administration was performed. The cancer immunotherapy drug (anti-CTLA4) was administered at intervals of 3 days at a concentration of 5 mpk, and the compound of the present invention (3-PhPh-AQTGTGKT) was intravenously administered at intervals of 2 days at a concentration of 10 mpk, and the survival rate of the subjects was analyzed using Kaplan Meier analysis.
Subsequently, the effect of the coadministration of the compound of the present invention and a different cancer immunotherapy drug on the survival rate of subjects was confirmed. CT26 cancer cells in which CAGE expression was induced were mixed with Matrigel in a ratio of 1:1, and 200 μL of the cell mixture was injected into a female BALB/c mouse at a concentration of 1×10^6 cells/mouse to produce a syngeneic mouse model. […]

[5] = test system: CT26 cells in which CAGE expression was induced; test: Histological analysis of tumor tissue by H&E staining; assay type: in vivo, mouse; conditions: single or combined administration; FIG. 11A
Procedure: as §2

[6] = test system: CT26 cancer cells in which CAGE expression was induced; test: Anticancer efficacy of compound and anti-PD-1, alone or combined, in syngeneic mouse model; assay type: in vivo; conditions: for absolute weight of the tumor: tumor removed on day 15, compound 10 mpk i.v. every 2 days, anti-PD-1 10 mg/kg i.p. every 3 days; for tumor volume (tumor growth): vs control, compound 10 mpk intravenously every 2 days, anti-PD-1 10 mg/kg intraperitoneally every 3 days, up to day 15
Procedure: as §1, with “(anti-PD-1)” for “(anti-CTLA4)”, “10 mg/kg (mpk),” for “5 mpk,”, “compounds according to” for “compound of”, “invention, AQTGTGKT, 3-PhPh-AQTGTGKT, and naphthyl-AQTGTGKT, were administered” for “invention (3-PhPh-AQTGTGKT) was”, “intravenously” for “intravenously administered”

Row | Molecule | tumor growth (tumor volume) ([1]; from day 11) | absolute weight of the tumor ([1]; tumor removed on day 15) | frequency of M2 macrophages (CD206) in tumor tissue ([2]; FIG. 11C) | frequency of total macrophages (F4/80) in tumor tissue ([2]; FIG. 11C) | frequency of cytotoxic T cells (CD8 T cells) in tumor tissue ([2]; mouse, in vivo) | frequency of total T cells (CD4 T cells) in tumor tissue ([2]; vs control or single administration groups, FIG. 11B) | CXCL10 mRNA expression level in tumor tissue [3] | subjects survived ([4]; of 10 subjects, control 2 survived) | subjects died ([4]; control 8 died) | tumor cell death in tumor tissue (H&E staining) [5] | absolute weight of the tumor [6] | tumor volume (tumor growth) [6]
1 | C[C@H](NC(=O)c1cccc(-c2ccccc2)c1)C(=O)N[C@@H](CCC(N)=O)C(=O)N[C@H](C(=O)NCC(=O)N[C@H](C(=O)NCC(=O)N[C@@H](CCCCN)C(=O)N[C@H](C(=O)O)[C@@H](C)O)[C@@H](C)O)[C@@H](C)O [3-PhPh-AQTGTGKT] (HELM PEPTIDE1{[O=C(c1cccc(-c2ccccc2)c1)[*:2]].A.Q.T.G.T.G.K.T}$$$$V2.0) | statistically significant decrease in tumor growth | lower than that of the control | no significant difference between the frequencies of macrophages | no significant difference between the frequencies of macrophages | no significant differences in the frequency of immune cells | no significant differences in the frequency of immune cells | similar | 3 | 7 out of 10 subjects | some areas where tumor cells were killed were observed | lower than that of the control | tumor growth began to decrease compared to the control
2 | C[C@H](NC(=O)c1ccc2ccccc2c1)C(=O)N[C@@H](CCC(N)=O)C(=O)N[C@H](C(=O)NCC(=O)N[C@H](C(=O)NCC(=O)N[C@@H](CCCCN)C(=O)N[C@H](C(=O)O)[C@@H](C)O)[C@@H](C)O)[C@@H](C)O [naphthyl-AQTGTGKT, Naphthyl-AQTGTGKT] (HELM PEPTIDE1{[O=C(c1ccc2ccccc2c1)[*:2]].A.Q.T.G.T.G.K.T}$$$$V2.0) |  |  |  |  |  |  |  |  |  |  | no significant difference between the tumor weight | no significant difference in tumor volume
3 | AQTGTGKT [AQTGTGKT] |  |  |  |  |  |  |  |  |  |  | no significant difference between the tumor weight | no significant difference in tumor volume

Source: patent publication US20250213645A1, “PHARMACEUTICAL COMPOSITION FOR MODULATING IMMUNE RESPONSE” (L-BASE CO., LTD., priority 2021, published 2025)
